In US20160251342A1, “ALDEHYDE DERIVATIVE OF SUBSTITUTED OXAZOLIDINONES” (WANBURY LTD., priority 2012, published 2016):

Experiment: Anticoagulant activity (PT, APTT) in human plasma
Format: biochemical
Conditions: 0.1 to 1.0 μg/mL, PT and APTT
Description: The anticoagulant action of the test substance (compound formula-B) and rivaroxaban was determined in vitro using human plasma. The human plasma used for this experiment was separated from the blood collected in sodium citrate as anticoagulant. The prothrombin time (PT) was determined by using a commercial test kit (Neoplastin from Stagid) and APTT was determined using (Synthasil kit by IL). […] Coagulation was then started by addition of thromboplastin, and time when coagulation occurred was determined. The concentration of test substance which effected a doubling of prothrombin time was determined.

## O=CN(C[C@H]1CN(c2ccc(N3CCOCC3=O)cc2)C(=O)O1)C(=O)c1ccc(Cl)s1 [compound formula (B), 5-chloro-N-formyl-N-({(5S)-2-oxo-3-[4-(3-oxomorpholin-4-yl)phenyl]-1,3-oxazolidin-5-yl}methyl)thiophene-2-carboxamide]
  Anticoagulant activity: significant anticoagulant activity
